Laboratory results: patent publication US8697888B2, “Substituted (1-(methylsulfonyl)azetidin-3-yl)(heterocycloalkyl)methanone analogs as antagonists of muscarinic acetylcholine M1 receptors” (Vanderbilt University, priority 2012, dated 2014)

Target: T1, mAChR M1 (UniProt P11229)
T1 sequence (P11229 1-460): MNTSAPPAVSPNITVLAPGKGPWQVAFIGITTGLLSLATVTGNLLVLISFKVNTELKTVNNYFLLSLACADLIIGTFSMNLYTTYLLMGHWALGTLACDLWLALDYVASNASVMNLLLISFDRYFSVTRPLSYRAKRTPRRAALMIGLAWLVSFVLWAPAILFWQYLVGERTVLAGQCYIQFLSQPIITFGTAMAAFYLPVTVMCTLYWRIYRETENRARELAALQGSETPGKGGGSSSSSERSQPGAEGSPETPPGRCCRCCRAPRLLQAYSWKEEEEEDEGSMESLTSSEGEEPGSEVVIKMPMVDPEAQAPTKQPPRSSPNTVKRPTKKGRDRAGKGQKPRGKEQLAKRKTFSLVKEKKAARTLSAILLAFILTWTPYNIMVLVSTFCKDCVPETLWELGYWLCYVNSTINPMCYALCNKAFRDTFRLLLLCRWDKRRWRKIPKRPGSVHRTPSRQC
Assay: mAChR M1 cell-based functional assay (calcium mobilization, antagonist mode)
Details: for IC50: concentration of antagonist decreasing calcium flux by 50%, EC80 acetylcholine response, CHO-K1 cells expressing mAChR M1, read-out: Potency (IC50)
Source text: Chinese hamster ovary (CHO-K1) cells stably expressing rat (r)M1 were purchased from the American Type Culture Collection and cultured according to their indicated protocol. CHO cells stably expressing human (h)M2, hM3, and hM5 were described previously (Levey, et al., 1991); hM1 and hM4 cDNAs were purchased from Missouri S&T cDNA Resource; rM4 cDNA was provided by T. I. Bonner (National Institutes of Health, Bethesda, Md.). rM2 and rM3 were cloned from a rat brain cDNA library and sequence verified. hM1, rM2, rM3, hM4, and rM4 cDNAs were used to stably transfect CHO-K1 cells purchased from the American Type Culture Collection using Lipofectamine-2000. To make stable rM2, hM2, rM3, hM4, and rM4 cell lines for use in calcium mobilization assays, these cells also were stably transfected with a chimeric G-protein (Gqi5) (provided by B. R. Conklin, University of California, San Francisco) using Lipofectamine 2000. rM1, hM1, rM3, hM3, rM5, and hM5 cells were grown in Ham's F-12 medium containing 10% heat-inactivated fetal bovine serum (FBS), 20 mM HEPES, and 50 μg/mL G418 sulfate. rM2-Gqi5, hM2-Gqi5, and hM4-Gqi5 cells were grown in the same medium also containing 500 μg/mL Hygromycin B. Stable rM4-Gqi5 cells were grown in DMEM containing 10% heat-inactivated FBS, 20 mM HEPES, 400 μg/mL G418 sulfate, and […].
For high throughput measurement of antagonist inhibited increases in intracellular calcium, CHO-K1 cells stably expressing muscarinic receptors were plated in growth medium lacking G418 and hygromycin at 15,000 cells/20 μL/well in Greiner 384-well black-walled, tissue culture (TC)-treated, clear-bottom plates (VWR). Cells were incubated overnight at 37° C. and 5% CO2. The next day, cells were washed using an ELX 405 (BioTek) with four washes (80 μL) of assay buffer then aspirated to 20 μL. Next, 20 μL of 16 μM Fluo-4/acetoxymethyl ester (Invitrogen, Carlsbad, Calif.) prepared as a 2.3 mM stock in DMSO and mixed in a 1:1 ratio with 10% (w/v) Pluronic F-127 and diluted in assay buffer was added to the wells and the cell plates were incubated for 50 min at 37° C. and 5% CO2. Dye was removed by washing with the ELX 405 (four 80 μL washes of assay buffer) then aspirated to 20 μL. Compound master plates were formatted in an 11 point CRC format (1:3 dilutions) in 100% DMSO with a starting concentration of 10 mM using the BRAVO liquid handler (Agilent). Test compound CRCs were then transferred to daughter plates (240 nL) using the Echo acoustic plate reformatter (Labcyte, Sunnyvale, Calif.) and then diluted into assay buffer (40 μL) to a 2× stock using a Thermo Fisher Combi (Thermo Fisher Scientific, Waltham, Mass.).
Calcium flux was measured using the Functional Drug Screening System (FDSS) 6000 (Hamamatsu Corporation, Tokyo, Japan) as an increase in the fluorescent static ratio. Compounds were applied to cells (20 μL, 2×) using the automated system of the FDSS 6000 at 4 s into the 300 s protocol and the data were collected at 1 Hz. At 144 s into the 300 s protocol, 10 μL of an EC20 concentration of the muscarinic receptor agonist acetylcholine was added (5×), followed by the addition of 12 μL an EC80 concentration of acetylcholine at the 230 s time point (5×). Agonist activity was analyzed as a concentration-dependent increase in calcium mobilization upon compound addition. Positive allosteric modulator activity was analyzed as a concentration-dependent increase in the EC20 acetylcholine response. Antagonist activity was analyzed as a concentration-dependent decrease in the EC80 acetylcholine response. Concentration-response curves were generated using a four-parameter logistical equation in XLfit curve fitting software (IDBS, Bridgewater, N.J.) for Excel (Microsoft, Redmond, Wash.) or Prism (GraphPad Software, Inc., San Diego, Calif.).
The calcium mobilization assay was used to determine “potency”.

[1] = activity remaining at top dose of 30 μM test compound, as percentage of the response to an approx. EC80 concentration of ACh
[2] = dash = baseline or about zero remaining activity (table footnote)

Row | SMILES | Remaining Activity (%) [1] | IC50 [µM] | Remaining Activity (%) [2]
1 | CCC(C)S(=O)(=O)N1CC(C(=O)N2CC3CN(c4ccncc4)CC3C2)C1 (stereo not drawn) [B85] | ≧80% | > 10 | –
2 | CCC(C)S(=O)(=O)N1CC(C(=O)N2CCN(c3ccncc3)CC2)C1 (stereo not drawn) [B46] | 52% | > 10 | –
3 | O=C(C1CN(S(=O)(=O)c2cccc3cnccc23)C1)N1CCN(c2ccncc2)CC1 [B1] | – | – | — (Unless otherwise indicated with a numerical value, the percent remaining activity is baseline or about zero, i.e. as indicated by “—”)
4 | O=C(C1CN(S(=O)(=O)C2CCOCC2)C1)N1CCN(c2ccncc2)CC1 [B81] | ≧80% | > 10 | –
5 | O=C(C1CN(S(=O)(=O)c2cccc3ncccc23)C1)N1CC2CN(c3ccncc3)CC2C1 (stereo not drawn) [B52] | – | 3.5 | — (Unless otherwise indicated with a numerical value, the percent remaining activity is baseline or about zero, i.e. as indicated by “—”)
6 | O=C(C1CN(S(=O)(=O)c2cccc3nonc23)C1)N1CC2CN(c3ccncc3)CC2C1 (stereo not drawn) [B56] | – | 0.96 | — (Unless otherwise indicated with a numerical value, the percent remaining activity is baseline or about zero, i.e. as indicated by “—”)
7 | Cc1cc2c(S(=O)(=O)N3CC(C(=O)N4CC5CN(c6ccncc6)CC5C4)C3)cccc2cn1 (stereo not drawn) [B60] | – | – | — (Unless otherwise indicated with a numerical value, the percent remaining activity is baseline or about zero, i.e. as indicated by “—”)
8 | CC(C)S(=O)(=O)N1CC(C(=O)N2CC3CN(c4ccncc4)CC3C2)C1 (stereo not drawn) [B84] | ≧80% | > 10 | –
9 | O=C(C1CN(S(=O)(=O)C2CCCCC2)C1)N1CCN(c2ccncc2)CC1 [B47] | 50% | > 10 | –
10 | Cc1cc2c(S(=O)(=O)N3CC(C(=O)N4CCN(c5ccncc5)CC4)C3)cccc2cn1 [B22] | – | – | — (Unless otherwise indicated with a numerical value, the percent remaining activity is baseline or about zero, i.e. as indicated by “—”)
11 | O=C(C1CN(S(=O)(=O)c2cccc(F)c2)C1)N1CC2CN(c3ccncc3)CC2C1 (stereo not drawn) [B59] | – | 2.1 | — (Unless otherwise indicated with a numerical value, the percent remaining activity is baseline or about zero, i.e. as indicated by “—”)
12 | Cn1ccnc1N1CCN(C(=O)C2CN(S(=O)(=O)c3cccc4nonc34)C2)CC1 [B62] | ≧80% | > 10 | –
13 | O=C(C1CN(S(=O)(=O)c2cccc3nonc23)C1)N1CCN(c2nccs2)CC1 [B33] | 48% | > 10 | –
14 | Cc1cc(S(=O)(=O)N2CC(C(=O)N3CCN(c4ccncc4)CC3)C2)cnc1Cl [B7] | – | – | — (Unless otherwise indicated with a numerical value, the percent remaining activity is baseline or about zero, i.e. as indicated by “—”)
15 | O=C(C1CN(S(=O)(=O)c2cccc3nsnc23)C1)N1CC2CN(c3ccncc3)CC2C1 (stereo not drawn) [B53] | – | – | — (Unless otherwise indicated with a numerical value, the percent remaining activity is baseline or about zero, i.e. as indicated by “—”)
16 | O=C(NC1CCN(c2ccccc2)C1)C1CN(S(=O)(=O)c2cccc3cnccc23)C1 (stereo not drawn) [B82] | ≧80% | > 10 | –
17 | O=C(C1CN(S(=O)(=O)c2cccc3nonc23)C1)N1CCN(c2ccccn2)CC1 [B31] | 11% | > 10 | –
18 | O=C(C1CN(S(=O)(=O)C2CCCCC2)C1)N1CC2CN(c3ccncc3)CC2C1 (stereo not drawn) [B86] | ≧80% | > 10 | –

More lines, main results first:

Row | Remaining Activity (%) [1] | IC50 [µM] | SMILES | Remaining Activity (%) [2]
19 | 32% | > 10 | O=C(C1CN(S(=O)(=O)c2cc(Cl)ccc2F)C1)N1CCN(c2ccncc2)CC1 [B35] | –
20 | ≧80% | > 10 | O=C(C1CN(S(=O)(=O)c2cccc(OC(F)(F)F)c2)C1)N1CCN(c2ccncc2)CC1 [B69] | –
21 | 27% | – | O=C(C1CN(S(=O)(=O)c2cccc(Cl)c2)C1)N1CCN(c2ccncc2)CC1 [B36] | –
22 | 11% | – | O=C(C1CN(S(=O)(=O)c2cccc(Cl)c2F)C1)N1CCN(c2ccncc2)CC1 [B34] | –
23 | ≧80% | > 10 | CN1CCN(C(=O)C2CN(S(=O)(=O)c3cccc4cnccc34)C2)CC1 [B80] | –
24 | – | 2 | Cc1nc(C(F)(F)F)c(S(=O)(=O)N2CC(C(=O)N3CCN(c4ccncc4)CC3)C2)s1 [B27] | — (Unless otherwise indicated with a numerical value, the percent remaining activity is baseline or about zero, i.e. as indicated by “—”)
25 | – | 0.46 | Cc1cc(N2CCN(C(=O)C3CN(S(=O)(=O)c4cccc5cnccc45)C3)CC2)cc(C)n1 [B14] | — (Unless otherwise indicated with a numerical value, the percent remaining activity is baseline or about zero, i.e. as indicated by “—”)
26 | 34% | > 10 | O=C(C1CN(S(=O)(=O)c2cccc3nonc23)C1)N1CCCN(c2ccncc2)CC1 [B32] | –
27 | – | 0.35 | O=C(C1CN(S(=O)(=O)c2cccnc2)C1)N1CCN(c2ccncc2)CC1 [B10] | — (Unless otherwise indicated with a numerical value, the percent remaining activity is baseline or about zero, i.e. as indicated by “—”)
28 | – | 0.39 | Cc1cnccc1N1CCN(C(=O)C2CN(S(=O)(=O)c3cccc4cnccc34)C2)CC1 [B13] | — (Unless otherwise indicated with a numerical value, the percent remaining activity is baseline or about zero, i.e. as indicated by “—”)
29 | – | 0.095 | O=C(C1CN(S(=O)(=O)c2ccc3c(c2)CCO3)C1)N1CCN(c2ccncc2)CC1 [B5] | — (Unless otherwise indicated with a numerical value, the percent remaining activity is baseline or about zero, i.e. as indicated by “—”)
30 | 43% | > 10 | CC(C)(C)CS(=O)(=O)N1CC(C(=O)N2CCN(c3ccncc3)CC2)C1 [B43] | –
31 | ≧80% | > 10 | Cc1nc(-c2cccc(S(=O)(=O)N3CC(C(=O)N4CCN(c5ccncc5)CC4)C3)c2)no1 [B71] | –
32 | ≧80% | > 10 | Cn1nccc1-c1cccc(S(=O)(=O)N2CC(C(=O)N3CCN(c4ccncc4)CC3)C2)c1 [B65] | –
33 | – | 0.12 | Cc1cc(N2CCN(C(=O)C3CN(S(=O)(=O)c4cccc5cnccc45)C3)CC2)ccn1 [B6] | — (Unless otherwise indicated with a numerical value, the percent remaining activity is baseline or about zero, i.e. as indicated by “—”)
34 | 34% | > 10 | O=C(C1CN(S(=O)(=O)c2ccc(Cl)cn2)C1)N1CCN(c2ccncc2)CC1 [B42] | –
35 | ≧80% | > 10 | O=C(C1CN(S(=O)(=O)c2cccc(-n3cnnn3)c2)C1)N1CCN(c2ccncc2)CC1 [B72] | –
